In patent publication US6579893B1, “Use of troglitazone and related compounds for the treatment of cancer” (Board of Regents, The University of Texas System, priority 1997, dated 2003):

Experiments:
MCF-7 cells = assay: Cell viability of MCF-7 cells (MTT to formazan); conditions: MCF-7 (non-PPARγ expressing), 4 days, MTT (FIG. 13)
Experimental: FIG. 13. […] MCF-7 cells were treated with increasing concentrations of Troglitazone for 4 days and cell viability was assessed by the conversion of MTT to formazan as previously described. Data are the mean ±SEM from 2 studies done in triplicate.
A non-PPARγ expressing human breast cancer cell line, MCF-7 was tested.

P450scc = assay: Northern blot of P450scc mRNA in porcine granulosa cells; format: cell-based; conditions: 5 μg ml, 24 h (FIG. 5)
Source text: FIG. 5. Scanned image of Northern blot Troglitazone effects on mRNA concentrations of P450scc.
Suppression of transcription of this enzyme would result in decreased progesterone production by granulosa cells.

HGL5 cells [1] = assay: Cell viability of HGL5 cells (MTT to formazan); conditions: HGL5, 4 days, MTT (FIG. 9)
Experimental: Cell viability was assessed by the conversion of MTT to formazan as previously described. Data are the mean ±SEM from 2 studies done in triplicate.
A similar assay was used as described above porcine granulosa cells, using MTT instead of MTS for conversion to formazan.

porcine granulosa cells [2] = assay: Cell viability of porcine granulosa cells (MTS to formazan); format: cell-based; conditions: even at the highest doses, 100 μg ml (FIG. 3)
Experimental: FIG. 3. Cell viability porcine granulosa cells during treatment with Troglitazone. Porcine granulosa cells were treated with various concentrations of Troglitazone and cell viability determined using a MTS dye oxidation method. This method is based on the ability of dehydrogenase enzymes found in metabolically active cells to oxidize MTS to formazan. This compound is soluble in tissue culture medium.
Therefore, cell viability was tested in these cells using a colorimetric assay that is dependent on the oxidation of MTS to formazan (absorbance measured at 490 nm ) by dehydrogenase enzymes found in metabolically active cells (Promega, Madison WI). This assay was verified in porcine granulosa cells by showing a linear increase in absorption with increasing cell density.

HGL5 cells [3] = test system: HGL5 cells
Source text: Progesterone was corrected for protein concentration. The data represent the mean ±SEM from 2 studies done in triplicate.

porcine granulosa cells [4] = assay: Progesterone production by cultured porcine granulosa cells; format: cell-based; conditions: for suppression of progesterone production, dose-response: serum-free medium, varying concentrations, 24 h (FIG. 1)
Source text: FlG. 1. Dose-response of progesterone production suppression in porcine granulosa cells treated with Troglitazone and related thiazolidinedione compounds. […] . […] Progesterone concentrations were corrected for DNA content in treated cells and are presented as a percentage of basal corrected progesterone production.
FIG. 2. Time course of Troglitazone suppression of progesterone production by porcine granulosa cells. […] .
FIG. 4. Effects of 25-OH cholesterol on Troglitazone suppression of porcine granulosa cell progesterone production. […] .
Initial studies investigated the dose-response of Troglitazone and related compounds on progesterone production in cultures of porcine granulosa cells. Porcine granulosa cells were isolated from 1- to 5-mm follicles of ovaries from immature swine (60-70 kg) obtained from a local slaughterhouse (Urban et al. 1994). The cells were plated in Eagle's minimum essential medium and 3% fetal calf serum (FCS) at a concentration of 20-30 million cells 60-mm dish for 12-16 h to facilitate granulosa cell attachment to the plates. Monolayer cultures were maintained at 37° C. in 5% CO2 throughout the study. After granulosa cell attachment, medium containing the FCS was discarded and serum-free medium with varying concentrations of Troglitazone, pioglitazone and BRL 49653 was added for 24 h. One ml of medium was collected for measurement of progesterone by an assay previously described that uses the chromatographic separation of steroids to enhance specificity (Urban et al. 1994). […] . The time course for the suppression of progesterone was done in the same porcine granulosa cell culture system. […] . The suppression of progesterone production in porcine granulosa cells by Troglitazone could be due to effects of the drug on the supply of cholesterol to the mitochondria. Before investigating proteins in the pathway of cholesterol transport to the mitochondria, it was first tested whether Troglitazone would inhibit progesterone production when cells were co-treated with 25-OH cholesterol. This compound diffuses directly to the P-450 cholesterol side-chain cleavage enzyme (P-450scc) in the mitochondria and acts as a substrate for progesterone production (Veldhuis and Furlanetto, 1985). […] .

[5] = test system: polycystic ovary syndrome; conditions: women with PCO, 400 mg every day, cited from earlier work
NWTb3 cells = assay: Cell viability of NWTb3 cells (MTT to formazan); conditions: NWTb3, 4 days, MTT (FIG. 11)
Experimental: FIG. 11. […] Cells were grown in 24 well-plates with high-glucose MEM 10% FCS. Cell viability was assessed by the conversion of MTT to formazan as previously described. Data are the mean ±SEM from 2 studies done in triplicate.

porcine granulosa cells [6] = assay: DNA content and total protein of treated porcine granulosa cells; format: cell-based
PPARα = biological target: T1, PPARα (Homo sapiens, UniProt Q07869); conditions: cited from earlier work
T1 sequence (Q07869 1-468): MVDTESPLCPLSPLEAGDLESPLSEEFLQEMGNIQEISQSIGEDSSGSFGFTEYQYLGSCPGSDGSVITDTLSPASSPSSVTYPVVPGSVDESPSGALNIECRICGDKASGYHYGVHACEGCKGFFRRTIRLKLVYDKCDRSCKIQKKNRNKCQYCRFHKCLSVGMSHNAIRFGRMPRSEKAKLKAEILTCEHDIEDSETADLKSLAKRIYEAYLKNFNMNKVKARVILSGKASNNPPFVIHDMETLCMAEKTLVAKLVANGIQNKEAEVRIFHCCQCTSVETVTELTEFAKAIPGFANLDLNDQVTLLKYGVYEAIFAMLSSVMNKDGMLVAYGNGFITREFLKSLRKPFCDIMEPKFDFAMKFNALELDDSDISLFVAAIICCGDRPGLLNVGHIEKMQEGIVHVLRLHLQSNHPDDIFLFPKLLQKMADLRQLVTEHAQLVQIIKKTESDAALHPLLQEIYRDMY

PPARγ [7] = conditions: cited from earlier work
PPARγ [8] = assay: EMSA of porcine granulosa cell nuclear extract with consensus PPRE (DR-1) oligonucleotide; format: cell-based; conditions: 15 μg nuclear extract protein, EMSA (FIG. 6)
Source text: The nuclear extract was mixed with radioactively-labeled consensus PPRE as described in FIG. 6.

Cc1c(C)c2c(c(C)c1O)CCC(C)(COc1ccc(CC3SC(=O)NC3=O)cc1)O2 (single isomer, unassigned; (+)) [Troglitazone, (+)-5[[4-[(3,4-dihydro-6-hydroxy-2,5,7,8-tetramethyl-2H-1-benzopyran-2-yl)methoxy]phenyl]methyl]-2,4thiazolidinedione]
cell viability (MCF-7 cells): decreased only with high concentrations | mRNA concentrations of P450scc (P450scc): did not suppress mRNA concentrations of P450scc | concentrations causing a loss of cell viability (HGL5 cells [1]): ≥ 0.5 µg·mL | cell viability (porcine granulosa cells [2]): not a decrease in cell viability | progesterone production at single concentration (HGL5 cells [3]; 30 μg ml): inhibited progesterone production | biphasic response at lower concentrations (HGL5 cells [3]; HGL5, 48 h (FIG. 8)): lower concentrations actually increasing progesterone production | concentrations at which progesterone production was suppressed (HGL5 cells [3]; HGL5, 48 h (FIG. 8)): greater than 10 μg | suppression of progesterone at single concentration (porcine granulosa cells [4]; 5 μg ml, 24 h (FIG. 7B)): suppression of progesterone in these cells occurred | time at which progesterone production was suppressed (porcine granulosa cells [4]; 1 or 10 μg ml, up to 24 h (FIG. 2)): ≥ 4 h | effect of concentration on time of onset of suppression (porcine granulosa cells [4]; 1 vs 10 μg ml (FIG. 2)): did not affect the time of onset of suppression | potency at suppressing progesterone production relative to the other thiazolidinediones (porcine granulosa cells [4]; 24 h dose-response (FIG. 1)): more potent at suppressing progesterone production than 2 other drugs | progesterone production in the presence of 25-OH cholesterol (porcine granulosa cells [4]; co-treatment with 25-OH cholesterol 30 μg ml, Troglitazone 1 and 10 μg ml, 24 h (FIG. 4)): suppressed progesterone production | suppression of progesterone production, dose-response (porcine granulosa cells [4]): suppressed progesterone production by porcine granulosa cells in a dose-dependent fashion | women with ovulatory menses ([5]; 25 women studied): 2 of the 25 | insulin resistance [5]: reduced | concentrations causing a loss of cell viability (NWTb3 cells): ≥ 1.0 µg/mL | total protein concentrations versus control (porcine granulosa cells [6]; Troglitazone treatment groups vs control): lower | DNA content versus control (porcine granulosa cells [6]; Troglitazone-treated vs control cells): not a significant decrease in DNA content

CCc1ccc(CCOc2ccc(CC3SC(=O)NC3=O)cc2)nc1 (centres unmarked) [pioglitazone, 5-[4-[2-(5-ethylpyridin-2-yl)ethoxyl]benzyl]thiazolidine-2,4-dione]
suppression of progesterone production, dose-response (porcine granulosa cells [4]): suppressed progesterone production by porcine granulosa cells in a dose-dependent fashion

CCCCC/C=C/C=C1/C(=O)C=C[C@@H]1C/C=C\CCCC(=O)O [15d-PGJ2, 15-deoxy-delta^12, 14-prostaglandin J2]
PPARα activation (PPARα): activated PPARα only at high concentrations | PPARγ-dependent adipogenesis (PPARγ [7]): activates PPARγ-dependent adipogenesis

CN(CCOc1ccc(CC2SC(=O)NC2=O)cc1)c1ccccn1 (centres unmarked) [BRL 49653, 5-[4-[2-(N-methyl-N-(2-pyridyl)amino]ethoxy]benzyl]thiazolidine-2,4-dione]
suppression of progesterone production, dose-response (porcine granulosa cells [4]): suppressed progesterone production by porcine granulosa cells in a dose-dependent fashion | binding to the PPRE in granulosa cell nuclear extracts (PPARγ [8]): increased binding to the PPRE
